Results published in US8957106B2, “Iminosugar treatment of tumors” (The Chancellor, Masters and Scholars of the University of …, priority 2007, dated 2015).

Legend:
SKMel28 melanoma cells = assay: MTS cell viability assay, SKMel28; type: cell-based; conditions: Homo sapiens, SK-MEL-28, SKMel28, 24 h, read-out: IC50 (concentration reducing number of viable cells by 50%)
Protocol: Cells were cultured at indicated densities for 24 h, medium was removed and the incubation was continued in a fresh culture medium containing various GC2 or DTIC concentrations. In control experiments, cells were grown in a culture medium containing GC2 buffer.
The standard […] (MTS)-3-(4,5-dimethylthiazol-2-yl)-5-(3-carboxymethoxyphenyl)-2-(4-sulphophenyl)-2H-tetrazolium inner salt solution assay was performed in order to examine the cytotoxic/cytostatic effect of GC2 on melanoma cells. Briefly, 7.5×10^3 cells were seeded in 96-well microtiter plates (Nunc). After an overnight incubation, serial dilutions of GC2 or DTIC were added in triplicate to a final volume of 100 μl. The blank was represented by a culture medium without cells containing the highest GC2 or DTIC concentration. After 24 h of incubation 20 μl MTS was added to each well and all samples were incubated for 3 h at 37° C. An absorbance of each well was read at 450 nm in a microplate reader. A percentage of cell viability was calculated considering that 100% cell viability was represented by an absorbance of untreated samples […]. Alternatively, the number of viable cells was determined by Trypan blue exclusion test. Melanoma cells treated with GC2 were trypsinized and cells negative for blue staining (viable cells) were counted using a hemocytometer. […]

MelJuSo cells = assay: Autophagic vesicle detection with GFP-LC3; type: cell-based, human; conditions: MelJuSo transfected with GFP-LC3, 6 μM
Protocol: LC3 is a protein recruited to an autophagosome membrane. The recruitment process is essential for autophagy and LC3 is a specific marker of the process, see Kabeya Y., et al., EMBO J. 19, 5720-5728, 2000. […] Cells were transiently transfected with GFP-LC3 plasmid DNA using the liposomal transfection kit Lipofectamine PLUS™ Reagent (Gibco-BRL) as described in Negroiu, G., et al., J. Biol. Chem. 278, 27035-27042, 2003. 24 h after transfection cells were treated with GC2 for the indicated time periods and analyzed by fluorescence microscopy.
The localization of LC3 (microtubule-associated protein1 light chain 3), which is an established marker for autophagosome membranes, see e.g. Kabeya, Y., et al. EMBO J., 19, 5720-5728, 2000, was examined in cells treated with GC2. LC3 is newly synthetised and recruited to autophagosomal membranes when autophagy is activated and is detected as cup- and ring shaped structures, see e.g. Mizushima, N. et al. Int. J. Biochem. & Cell Biol. 36, 2491-2502, 2004. […] In GC2-treated MNT-1 cells, very few vacuoles were observed by a phase contrast microscopy. The MNT-1 cell line was also the least positive for autophagic marker (data not shown).

[1] = test system: actin network in SKMel28 and MelJuSo cells; assay: Actin staining with Alexa Fluor 594 phalloidin, fluorescence microscopy; type: cell-based; conditions: 6 μM, 3 h
Protocol: Tumor cells were cultured 24 h on cover glasses, treated with GC2, and processed as described in Negroiu, G., et al. J. Biol. Chem. 278, 27035-27042, 2003. The acidic vesicular compartments were detected following incubation of live cells GC2 treated with Lysotracker® Red (0.125 μl/ml culture medium) for 30 min at 37° C. Fixed cells were incubated with the following primary antibodies: mouse anti-EEA1 (1:100), human-CD107A (anti-Lamp1) (1:50), a mouse anti-α tubulin (1:200) followed by an appropriate Alexa Fluor® 488 conjugated secondary antibodies (1:400) or with Alexa Fluor® 594 phalloidin. Finally, nuclei of fixed cells were stained with 5 mM Hoechst dye 33342. Cells were washed three times with PBS and mounted in Vectashield® mounting medium.
Whether tumor cell compartments and cytoskeletal elements are altered by GC2 treatment was analysed utilizing molecular markers for two main cell compartments: 1) EEA1 for early endosomes, which are accessed first by all endocytosed molecules and 2) Lamp-1 for lysosomes, the major degradative compartment. Actin filaments were labeled with Alexa Fluor® 594 phalloidin and microtubules with an anti-α-tubulin antibody; all samples were analyzed by fluorescence microscopy. […] Following GC2 treatment both endocytic markers were redistributed in large substructures detected also by phase contrast microscopy. […]

## CC(=O)O.CCCCCCCCCN1[C@@H](CO)[C@@H](O)[C@H](O)[C@@H]1CCCCCCCC [GC2, (2S,3R,4R,5S)-3,4-dihydroxy-N-nonyl-5-octyl-2 hydroxymethylpyrrolidinium acetate]
SKMel28 melanoma cells
  IC50: 7 to 8 µM
MelJuSo cells
  GFP-LC3 distribution (autophagic marker): punctate pattern of bright fluorescence
[1]
  pattern of the fluorescent actin marker: disrupted
